# Source: paper PMC10484568 (Chemical communications (Cambridge, England), 2019)
# Where a SMILES comes first, the peptide text is derived from it. Bridges are numbered along the chain shown (N, C = ends). [ ]: non-standard residue; d: D form. The star is where a group is joined. X1 = CC[C@H](C)CCCCC(=O)*; Dab = NCC[C@H](N)C(=O)O
# Tests used:
# Type in all cases: cell-based
# [1] = Hemolytic activity
# [2] = test system: MRSA
# [3] = test system: P. aeruginosa
# [4] = test system: E. coli
# [5] = test system: MRSE
structure (smiles),measurement,setting,value
"CC[C@H](C)CCCCC(=O)N[C@@H](CCN)C(=O)N[C@H](C(=O)N[C@@H](CCN)C(=O)N[C@H]1CCNC(=O)[C@H]([C@@H](C)O)NC(=O)[C@H](CCN)NC(=O)[C@H](CCN)NC(=O)[C@H](CC(C)C)NC(=O)[C@@H](CC(C)C)NC(=O)[C@H](CCN)NC1=O)[C@@H](C)O [Colistin, colistin] (X1-[Dab]T[Dab][Dab][Dab][dL]L[Dab][Dab]T; lactam 4-C (inferred); N-terminus assumed)",HC50,[1],> 250 µg/mL
same,Activity against MRSA (in words),[2],not active
same,MIC MRSA (Gram positive),[2]; multidrug resistant strain,>50 µg/mL
same,MIC P. aeruginosa (Gram negative),[3],0.5 µg/mL
same,MIC E. coli (Gram negative),[4],0.5 µg/mL
same,MIC MRSE (Gram positive),[5],> 50 µg/mL
